According to ChEMBL document CHEMBL4828759, “Targeted methylation facilitates DNA double strand breaks and enhances cancer suppression: A DNA intercalating/methylating dual-action chimera Amonafidazene” (Eur J Med Chem, 2021):
The source made the active and inactive calls. The rule behind the calls is not given here.

Assays:
DNA [1] = test: Induction of DNA methylation in human HCT-116 cells assessed as reduction of MGMT expression at 200 uM measured after 48 hrs by Western blot assay relative to control; type: functional, cell-based; design: scale not given: the % may be the effect or the level left
MDA-MB-238 [2] = test: Inhibition of DNA Topoisomerase-2 in human […] cells assessed as generation of DNA double strand breaks measuring gamma-H2AX at incubated for 24 hrs followed by drug washout and measured after 24 to 96 hrs by immunofluorescence assay; type: cell-based
A 172 = test: Cytotoxicity against human A 172 cells assessed as cell viability measured after 96 hrs by XTT assay; type: functional, cell-based; conditions: A 172, 96 h
WM 266-4 = test: Cytotoxicity against human WM 266-4 cells assessed as cell viability measured after 96 hrs by XTT assay; type: functional, cell-based; conditions: WM 266-4, 96 h
NCI-H1299 = test: Cytotoxicity against human NCI-H1299 cells assessed as cell viability measured after 96 hrs by XTT assay; type: functional, cell-based; conditions: NCI-H1299, 96 h
MDA-MB-238 [3] = test: Cytotoxicity against human […] cells assessed as cell viability measured after 96 hrs by XTT assay; type: functional, cell-based
DNA [4] = test: Induction of DNA methylation in human HCT-116 cells assessed as reduction of MGMT expression at 400 uM measured after 48 hrs by Western blot assay relative to control; type: functional, cell-based; design: scale not given: the % may be the effect or the level left
[5] = Drug metabolism in human MDA-MB-231 cells assessed as increase of free amonafide in cell at 25 uM measured after 2 hrs by fluorescence based microscopic assay; type: ADME; conditions: mda-mb-231, 2 h
[6] = Drug metabolism in human MDA-MB-231 cells xenografted in athymic Balb/c mouse assessed as increase of free amonafide in tumor at 10 mg/kg, ip measured after 120 hrs by fluorescence based microscopic assay; type: ADME, organism-based; conditions: in vivo
MDA-MB-238 [7] = test: Inhibition of DNA Topoisomerase-2 in human […] cells assessed as generation of DNA double strand breaks by measuring gamma-H2AX at 2 uM incubated for 24 hrs followed by drug washout and measured after 24 hrs by immunofluorescence assay; type: cell-based
MDA-MB-238 [8] = test: Inhibition of DNA Topoisomerase-2 in human […] cells assessed as generation of DNA double strand breaks measuring gamma-H2AX at 2 uM incubated for 24 hrs followed by drug washout and measured after 96 hrs by immunofluorescence assay; type: cell-based
MDA-MB-238 [9] = test: Antitumour activity against human […] cells xenografted in athymic nude-Foxn 1nu mouse assessed as inhibition of tumour growth at 1.9 mg/kg, ip measured after 5 weeks; type: functional, organism-based
MDA-MB-238 [10] = test: Antitumour activity against human […] cells xenografted in athymic nude-Foxn 1nu mouse assessed as inhibition of tumour growth at 3.8 mg/kg, ip measured after 5 weeks; type: functional, organism-based

SMILES	Activity (DNA [1])	inhibition (MDA-MB-238 [2])	IC50 (A 172)	IC50 (WM 266-4)	IC50 (NCI-H1299)	IC50 (MDA-MB-238 [3])	Activity (DNA [4])	Drug metabolism [5]	Drug metabolism [6]	inhibition (MDA-MB-238 [7])	inhibition (MDA-MB-238 [8])	Activity (MDA-MB-238 [9])	Activity (MDA-MB-238 [10])
Cn1nnc2c(C(N)=O)ncn2c1=O [TEMOZOLOMIDE]	93%	inactive	> 40 µM	> 100 µM	> 100 µM	> 100 µM	57%						
COC(=O)N(C)/N=N/c1ccc(CO)cc1	75%		> 40 µM	> 100 µM	> 100 µM	> 100 µM	48%						
COC(=O)N(C)/N=N/c1ccc(COC(=O)Nc2cc3c4c(cccc4c2)C(=O)N(CCN(C)C)C3=O)cc1			2.73 µM	3.79 µM	1.79 µM	3.02 µM		Metabolite_Detected	Metabolite_Detected	Active	Active	Active	Active
CN(C)CCN1C(=O)c2cccc3cc(N)cc(c23)C1=O [AMONAFIDE]			23.8 µM	6.92 µM	8.84 µM	24.2 µM				Active	Active	Active	
COC(=O)N(C)/N=N/c1ccc(COC(=O)Nc2ccc3c4c(cccc24)C(=O)N(CCN(C)C)C3=O)cc1			7.46 µM	4.86 µM	3.61 µM	6.26 µM							
